According to patent publication US5859032A, “Pyridine derivative, anti-ulcer drug, and antibacterial drug” (priority 1996, dated 1999):

Experiments:
[1] = test system: isolated gastric fundic gland; assay: CAP: Acid Secretion Inhibition Test In Vitro ([14C]-aminopyrine uptake test); format: cell-based, Japanese White rabbit; conditions: 10^-5 M, histamine 10^-5 M, 37° C.; for inhibition at 10 µM: Oryctolagus cuniculus, 40 min, read-out: CAP: acid secretion inhibitory rate
Procedure: CAP: Acid Secretion Inhibition Test In Vitro
The acid secretion inhibitory activity in a cell level is studied. It can also be used for studying the mechanism of the effect. […]
ii-a) Preparation of isolated gastric fundus gland suspension
First, an isolated gastric fundic gland sample was prepared. Namely, a male Japanese White rabbit (2.5 to 3 kg) was anesthetized to death with Nembutal™ and then the abdomen was incised. Immediately thereafter, the stomach was removed and, after its pyloric and cardiac antrum were severed, incised along its greater curvature into two sheets. The gastric contents adhering to the mucosal surface was washed out with ice-cooled PBS (-) and then carefully washed therein. The gastric wall was spread on a cork board with its mucosal surface facing up and the feed and mucus thereon were completely removed with sterile gauze. The mucosa was separated therefrom by a spatula and then collected in ice-cooled PBS (-). After being washed twice with PBS (-), the mucosa was minced into 2-3 mm^3 pieces by scissors. These pieces were further washed twice with a nutrient solution. The nutrient solution comprises 132.4 mM of NaCl, 5.4 mM of KCl, 5 mM of Na2 HPO4. 12H2 O, 1 mM of NaH2 PO4. 2H2 O, 1.2 mM of MgSO4, 1 mM of CaCl 2, 25 mM of HEPES, 2 mg/ml of glucose, and 1 mg/ml of BSA. Into 70 ml of the nutrient solution containing 1 mg/ml of collagenase, minced mucosal pieces were dispersed and intensely stirred in a conical flask with a stirrer at 37° C. for 40 to 60 minutes. During this period, 100% O2 was sprayed on the nutrient solution surface and the pH was appropriately measured such that it was immediately adjusted to pH 7.4, when the value was therebelow, with a base. The nutrient solution was added to the reaction solution so as to attain the total amount of about 200 ml. After being filtered through a mesh, the suspension was divisionally introduced into 50 ml centrifuge tubes and left for 15 minutes such that gastric fundic gland was deposited. The supernatant was repeatedly removed by an aspirator, dispersed in the nutrient solution, and then left such that the gastric fundic gland was washed three times. At this time, without using a pipette, the suspension was alternately introduced into two centrifuge tubes so as to effect dispersion. The number of cells was counted under microscope and adjusted to 1.6×10^6 cells/ml. […]
ii-b) [^14 C]-aminopyrine uptake test
Then, [^14 C]-aminopyrine uptake test was performed. After an Eppendorf tube was weighed, 10 μl (final concentration: 10^-5 M) of histamine dissolved in the above-mentioned nutrient solution, 10 μl (final concentration: 10^-5 M) of the test compound dissolved in DMSO, and 10 μl (final concentration: 0.05 μCi/ml) of [^14 C]-aminopyrine diluted with the nutrient solution were introduced therein and then 970 μl of the isolated gastric fundic gland suspension prepared above was added thereto. Subsequently, this mixture was shaken at 37° C. for 40 minutes at 125 cycles/minute. After being centrifuged for 30 minutes, 200 μl of its supernatant was collected into a mini-vial, while the rest was removed by an aspirator. The gland pellet was completely dried as the tube with its lid being opened was kept for one night in a drying oven at 80° C. and then the lid was closed and the weight was determined at room temperature. Then 100 μl of 1N KOH was added thereto and the tube with its lid being closed was treated at 60° C. for 1 to 2 hours so as to dissolve the pellet. Then, the contents thereof were transferred to a mini-vial. Into the mini-vial containing the supernatant or gland pellet, 4 ml of Atomlite™ was added and then the radioactivity was measured by a liquid scintillation counter. Here, after the radioactivity of the gland pellet was corrected by using a sample in which 20 mM of NaSCN was added so as to cancel the hydrogen ion concentration gradient, the integration ratio of aminopyrine specifically trapped by the gland pellet was calculated. […]

[2] = MTT: Cell Damaging and Protecting Effect Test; format: cell-based, Japanese White rabbit; conditions: rabbit, gastric mucosa cells, 10^-4 M, 37° C., smaller value is better, read-out: MTT: cell damaging rate
Text: MTT: Cell Damaging and Protecting Effect Test
It is confirmed that there is no toxicity in cell level. Those having a toxicity in cell level are inappropriate as an anti-ulcer drug.
A male Japanese White rabbit (2.5 to 3 kg) was anesthetized to death by Nembutal™ and, immediately thereafter, its stomach was removed. The greater curvature of the stomach was incised so as to remove the stomach contents therefrom. After the mucosal surface was washed with HBSS (Hanks' Balanced Salt Solution), the stomach in ice-cooled HBSS was transferred to a laboratory. Then, after the pyloric antrum was removed, the gastric corpus mucosa was separated by a spatula and then minced into 2 to 3 mm^3 pieces in BME (Basal Medium Eagle). Thereafter, these pieces were shaken at 120 to 130 cycles/minute for 15 minutes at 37° C. in BME 60 ml containing 280 U/ml of dispase and 30 to 50 U/ml of collagenase. Here, the concentration of collagenase was appropriately changed for each lot in view of the state of cells. The pieces were washed twice with EBSS (Earle's Balanced Salt Solution) containing 1 mM of EDTA and then shaken in MEM (Minimum Essential Medium) containing 1 mM of EDTA at 37° C. for 5 minutes. Subsequently, they were shaken in the dispase and collagenase having the same concentrations as those mentioned above for 15 minutes so as to remove the supernatant and then further shaken at 37° C. for 50 to 60 minutes at 120 to 130 cycles/minute. Then, after being washed twice with HBSS, Ham F12 containing 2% of Ultrocer GT™ was used to attain the concentration of 1×10^6 cells/ml. Thus formed suspension was dispensed in each well of a 96-well plate by 200 μl. The plate was incubated in the atmosphere composed of 5% CO2 and 95% air at 37° C. for three days so as to attain a confluent state and then subjected to MTT assay.
The sample compound was dissolved in DMSO so as to attain a concentration of 10^-2 M and then diluted with HBSS containing 2% of Ultrocer G™ so as to attain a final concentration of 10^-4 M. To each group, which 8 wells were used for, 10 μl of MTT reagent was added immediately after 100 μl of the medium in each well was exchanged for same volume of the resulting solution of the sample compound. After being incubated in an atmosphere composed of 5% CO2 and 95% air at 37° C. for 4 hours, thus formed solution was centrifuged and then its supernatant was discarded. Subsequently, 100 μl of 100% ethanol was added to the residue so as to dissolve MTT formazan. Then, the absorbance (OD: 570 to 630) was measured by a microplate reader. This method utilizes a phenomenon in which MTT is changed to MTT formazan only by mitochondria of living cells so as to change color.
The cell damaging or cell protecting effect of the sample compound at the final concentration of 10^-4 M was expressed as cell damaging rate (%) as follows:
cell damaging rate (%)=(1-(absorbance in sample group/absorbance in control
Accordingly, the smaller value is better in the cell damaging rate.

[3] = test system: stress ulcer formation (rats); assay: WIS: Restraint and Water Immersion Stress-Induced Ulcer Inhibition Test; format: in vivo, rat (male Crj:SD or Slc:SD); conditions: rat, 100 mg/kg, oral, 7 hours water immersion stress
Procedure: WIS: Restraint and Water Immersion Stress-Induced Ulcer Inhibition Test
The degree of inhibition of the stress ulcer formation is tested.
Male Crj:SD or Slc:SD rats (6 to 7-week-old) were fasted overnight, but allowed free access to water. Each group has 5 to 8 of these rats. […] To a control group, the vehicle was administered. 10 minutes later, the rats were placed in a stress cage and immersed to the level of xipfoid process in a water bath (21° C.) for 7 hours. At the end of the stress, the rats were sacrificed by inhalation of ether or carbon dioxide. Then, the stomach of each was removed, inflated by injecting 10 ml of 5% formalin neutral buffer solution, and immersed in 1% formalin neutral buffer solution for 30 minutes or more to be fixed. The stomach was incised along the greater curvature and then the length of each erosion in the glandular portion was determined under dissecting microscope. The sum of the length of erosions per stomach was defined as ulcer index (UI).
The effect obtained when 100 mg/kg of the sample compound had been administered was expressed as ulcer formation inhibitory rate (%) as follows:
ulcer formation inhibitory rate (%)=(1-(UI in sample group/UI in control

gastric mucosa = assay: PD: Gastric Mucosal Integrity Test; format: in vivo, rat (male CDj:SD); parameters: key: 5: Same as the control with no recognizable damage at all.; 4: Though a slight PD-decreasing tendency suggesting a slight possibility of mucosal damage is found, there is no problem.; 3: Though a weak decrease in PD and a possibility of a weak mucosal damage is recognized, there is no substantial problem.; 2: Medium degree of decrease in PD is found and a mucosal damage is recognized.; 1: Heavy degree of decrease in PD is found and a remarkable mucosal damage is recognized; conditions: rat, 100 mg/kg into chamber, 60 minutes
Procedure: PD: Gastric Mucosal Integrity Test
In this case, since the sample compound has a necrotizing effect, it is inappropriate as an anti-ulcer medicament.
Therefore, the gastric mucosal potential difference (PD), which reflects the integrity of the gastric mucosa, is measured so as to confirm that the sample compound has no damaging effect on gastric mucosa, which is toxicity at gastric mucosal level.
Male CDj:SD rats (7 to 8-week-old) were fasted overnight, but allowed free access to water, and then, under urethane anesthesia (1.25 g/kg, i.p.), fixed to a cork board on its back. The abdomen of each rat was incised, and a small incision was made in the forestomach. Then, the inside of the stomach was washed with physiological saline heated at 37° C. From the forestomach, along the greater curvature thereof, the stomach was incised without damaging blood vessels. After the height of the cork board was adjusted on a jack, the stomach was mounted on ex vivo chamber. The area of the gastric mucosa exposed to the inside of this chamber was 2.5 cm^2. The inside of the chamber was perfused with physiological saline warmed at 37° C. by micro tube pump. By using an agar bridge containing 3M KCl, the potential difference between the chamber and the abdominal cavity was measured by a PD meter. Here, the rectal temperature was measured to control the body temperature during the experiment. […] To a control, the vehicle was administered.
The change in PD during 60 minutes after the administration of 100 mg/kg of the sample compound was collectively studied and, with reference to the positive control, classified into 5 levels as follows:
5: Same as the control with no recognizable damage at all.
3: Though a weak decrease in PD and a possibility of a weak mucosal damage is recognized, there is no substantial problem.
2: Medium degree of decrease in PD is found and a mucosal damage is recognized.
1: Heavy degree of decrease in PD is found and a remarkable mucosal damage is recognized.

mice = conditions: mouse, in vivo
Procedure: AT: Single Dose Toxicity Pretest
Male Slc:ICR mice (5-week-old) were used. Each group has 3 to 5 mice and each mouse was fasted, but allowed free access to water, for 4 to 5 hours from 9 a.m. in the test day. Then, 2,000 mg/10 ml/kg of the sample compound dissolved or suspended in an aqueous solution of 0.5% sodium carboxymethyl cellulose was orally administered thereto. To a control, only the vehicle was administered. […] The body weight was measured before and after the fasting as well as at the same time everyday. The dead animals were immediately subjected to autopsy and their organs were observed microscopically. Also, the living animals were sacrificed with ether or carbon dioxide one week after the administration and then their organs were observed microscopically.
The toxicity at the single dose of 2,000 mg/kg of the sample compound was expressed as being classified into 5 levels.
5: Mortality rate is 0%; no toxicity is found at all both in behavior and organs.
4: Mortality rate is 0%; while no toxicity is found in organs, slight toxicity is observed in behavior and body weight increase.
3: While there is a dead animal (though not all the animals are dead), no toxicity is found in organs.
2: Regardless of whether there is a dead animal or not, toxicity is found in organs.
1: All the animals are dead.

[4] = test system: gastric acid secretion (pylorus-ligated, histamine-stimulated rats); assay: VOL, TAO: Acid Secretion Inhibition Test In Vivo; parameters: species or system rat (male Crj:Donryu); conditions: rat, 100 mg/kg, oral; histamine 30 mg/kg s.c.
Procedure: VOL, TAO: Acid Secretion Inhibition Test In Vivo
Inhibitory effect on acid secretion in vivo is confirmed.
Male Crj:Donryu rats (7-week-old) were fasted overnight but allowed free access to water. In each group, 8 to 10 of these rats were used under urethane anesthesia (1.25 g/kg). […] 30 minutes later, the abdomen of each was incised and the pylorus was ligated. 30 minutes after the ligation, 30 mg/kg of histamine dissolved in physiological saline was subcutaneously administered and, 3 hours thereafter, the rat was sacrificed with carbon dioxide. Immediately thereafter, each stomach was removed and the gastric contents were collected and each volume was determined. The total acid output was determined by titration of the gastric juice with 0.1N NaOH.
With respect to the gastric juice volume (VOL) and the total acid output (TAO), the effects obtained when 100 mg/kg of the sample compound had been administered were expressed as their respective inhibitory rates (%) as follows:
each inhibitory rate (%)=(1-(value in sample group/value in control

Structure (SMILES)	inhibition at 10 µM [1]	cytotoxicity at 4 h, 100 µM [2]	WIS: ulcer formation inhibitory rate [3]	PD: change in gastric mucosal potential difference (5 levels) (gastric mucosa)	AT: toxicity at the single dose (5 levels) (mice)	TAO: total acid output inhibitory rate [4]	VOL: gastric juice volume inhibitory rate [4]	CAP: acid secretion inhibitory rate ([1]; 40 minutes)
COc1ccc(NCCNC(=O)c2ccc(OC/C=C(\C)CCC=C(C)C)cc2)cn1 [Example 9, 3-[2-(4-geranyloxybenzoylamino)ethylamino]-6-methoxypyridine]	77%	8%	42%					
CC(C)=CCC/C(C)=C/COc1ccc(C(=O)NCCSc2ccc(C(F)(F)F)cn2)cc1 [Example 12, 2-[2-(4-geranyloxybenzoylamino)ethylthio]-5-trifluoromethylpyridine]		-14%	37%	5	5	-10%	-5%	
CC(C)=CCC/C(C)=C/COc1ccc(OC/C=C(\C)CCC=C(C)C)c(C(=O)NCCc2ccncc2)c1 [Example 5, 4-[2-(2,5-digeranyloxybenzoylamino)ethyl]pyridine]	99%	-17%	35%					
CC(C)Cc1cc(C(=O)NCCc2ccncc2)ccc1OCc1ccc(F)cc1.Cl [Example 15, 4-[2-[4-(4-fluorobenzyloxy)-3-isobutylbenzoylamino]ethyl]pyridine hydrochloride]			86%					95.1%
CC(C)Cc1cc(C(=O)NCCc2ccncc2)ccc1OCc1ccc(F)cc1 [Example 14, 4-[2-[4-(4-fluorobenzyloxy)-3-isobutylbenzoylamino]ethyl]pyridine]	97%		91%		4			
